Test results as given in publication PMC10447463, “Data-mining unveils structure–property–activity correlation of viral infectivity enhancing self-assembling peptides” (Nature Communications, 2023).
Like-named read-outs stand apart in the source and are kept apart here.

Tests used:
[1] = format: physicochemical; set-up: key to Fibril / Fibril Formation / TEM 2cat / Fibril: 1 = fibrils present; 0 non-fibrillar structures; settings: for Fibril / Fibril Formation: 1 mg/mL, uranyl acetate stain, qualitative
[2] = β-sheet content by ATR-FT-IR; format: physicochemical; settings: for b -sheet / %: Fig. S7 panel A, β-sheet content by ATR-FT-IR
Summary of the method: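 1 mg/mL PNF solutions lyophilized and powders measured by diamond ATR FT-IR (2 cm^-1 resolution, 64 scans); β-sheet content calculated per a prior method. For CR, PNF solution centrifuged through 3 kDa MWCO filter (16200 x g, 4 °C, 45 min); filtrate and unfiltered sample lyophilized, dissolved in DMSO, reacted with fluorescamine.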

[3] = Zeta-potential measurement; format: physicochemical
Summary of the method: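 Aggregates: 1 mg/mL peptide, PBS pH 7.4, 1 d RT; dilute in KCl (1 mM, aq); measure mobility → zeta via Smoluchowski.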

[4] = Turbidity, derived count rate of scattered light; format: physicochemical; settings: for Count Rate / kcps: derived count rate of scattered light at 633 nm, 173°, from zeta-potential measurement, 0.1 mg/mL in 1 mM KCl after 1 d at 1 mg/mL in PBS, turbidity / microscopic aggregation, mean of triplicate
Summary of the method: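 Samples: 1 mg/mL in PBS pH 7.4 (from DMSO), 1 d at RT, then diluted in 1 mM KCl immediately before measurement. Triplicates, two independent runs averaged.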

[5] = FigS12 panel A, fibril category by TEM
[6] = TEM, 1 = fibrils present, 0 = non-fibrillar
[7] = TEM, 1 = fibrils present, 0 = non-fibrillar structures
[8] = zeta potential of peptide assemblies
[9] = zeta-potential of peptide, source data of Figure 2C
[10] = zeta-potential of the peptide assemblies, mean, Figure 3A source data
[11] = Log10 of derived count rate of scattered light (turbidity)
[12] = turbidity, Log10 of derived count rate of scattered light, Figure 3A source data
[13] = turbidity, log10 of derived count rate of scattered light
[14] = category: fibrils present or non-fibrillar
[15] = logarithm of count rate in kcps

Row | Substance | TEM 2cat ([1]; Fig S10 panel D) | TEM 2cat [1, 5] | Fibril ([1]; FigS12 panel B, TEM) | Fibril / Fibril Formation ([1]; TEM) | Fibril [1, 6] | Fibril [1, 7] | b -sheet / % [2] [%] | Zeta-Pot. [3, 8] | Zeta-Potential / mV [3, 9] [mV] | Zeta-Potential / mV [3, 10] [mV] | Log10 Count Rate [4, 11] | Count Rate / kcps [4] [kcps] | Log10 Count Rate [4, 12] | Log10 Count Rate [4, 13] | Zeta-Pot. [3] | Fibril ([1]; Fig S10 panel E) | also measured
1 | EIEIEIEI | 1 | 1 | 1 | 1 | 1 | 1 | 62.61 | -8.92 | -7.535 | -8.92 | 2.731 | 538 | 2.731 | 2.731 | – | – | –
2 | FDPFDPFDP | 0 | 0 | 0 | 0 | 0 | 0 | 48.89 | – | -6.68 | -10.9 | 2.412 | 258 | 2.412 | 2.412 | -10.9 | – | –
3 | FKFDKFKFDK | 0 | 0 | 0 | 0 | 0 | 0 | 46.64 | – | -8.027 | -12.7 | 1.6545 | 45 | 1.6545 | 1.6545 | -12.7 | – | –
4 | HGDKCHGDKC | 0 | 0 | 0 | 0 | 0 | 0 | 4.749 | – | -8.035 | -11.63 | 1.095 | 12 | 1.095 | 1.095 | -11.63 | 0 | –
5 | HGEHGE | 0 | 0 | 0 | 0 | 0 | 0 | 9.5428 | – | -8.73 | -12.6 | 2.381 | 241 | 2.381 | 2.381 | -12.6 | – | –
6 | HGEHGEHGE | 0 | 0 | 0 | 0 | 0 | 0 | 6.271 | – | -14.63 | -24.2 | 2.532 | 340 | 2.532 | 2.532 | -24.2 | 0 | –
7 | HHHHEIEIEIEI | 0 | 0 | 0 | 0 | 0 | 0 | 48.37 | -6.91 | -6.272 | -6.91 | 2.014 | 103 | 2.014 | – | – | – | Log10 Count Rate ([4]; log10 of derived count rate of scattered light (turbidity)): 2.014
8 | HIHIQIC | 1 | – | – | 1 | 1 | 1 | 48.25 | – | -5.093 | -3.69 | 2.416 | 261 | 2.416 | 2.416 | -3.687 | 1 | TEM 2cat [1, 14]: 1; Log10 Count Rate [4, 15]: 2.416
9 | HLHLPLL | 0 | 0 | 0 | 0 | 0 | 0 | 49.19 | – | -5.247 | -9.05 | 2.301 | 200 | 2.301 | 2.301 | -9.053 | 0 | –
10 | HRRHFRHKITKKK | 0 | 0 | 0 | 0 | 0 | 0 | 45.34 | – | -4.964 | -9.22 | 0.9777 | 10 | 0.9777 | 0.9777 | -9.223 | 0 | –
11 | KAKAQA | 0 | 0 | 0 | 0 | 0 | 0 | 40.34 | -14.08 | -10.04 | -14.08 | 1.321 | 21 | 1.321 | 1.321 | – | 0 | –
12 | KAKAQANMWQ | 0 | 0 | 0 | 0 | 0 | 0 | 42.81 | – | -14.675 | -19.63 | 1.749 | 56 | 1.749 | 1.749 | -19.63 | 0 | ß-sheet / % ([2]; ATR-FT-IR of lyophilised 1 mg/mL PNF solution, peak integral ratio 1625-1635 cm-1, measured once): 43%; Zeta pot. / mV ([3]; 1 mg/mL in PBS pH 7.4 from 10 mg/mL DMSO stock, 1 d RT, 60 µL diluted in 600 µL 1 mM KCl, Zetasizer Nano ZS, Smoluchowski, mean of triplicate): -19.6 mV; Log10 Count Rate [4, 15]: 1.7
13 | KAKQAANMWQ | 0 | 0 | 0 | 0 | 0 | 0 | 10.94 | – | -8.433 | -12.9 | 2.839 | 690 | 2.839 | 2.839 | -12.9 | – | –
14 | KFKFQF | 0 | 0 | 0 | 0 | 0 | 0 | 46 | -11.03 | -8.745 | -11.03 | 2.263 | 183 | 2.263 | 2.263 | – | 0 | –
15 | KFKFQFNMWQ | 1 | – | – | 1 | 1 | 1 | 43.15 | – | 24.38 | 25.4 | 2.866 | 735 | 2.866 | 2.866 | 25.4 | 1 | TEM 2cat [1, 14]: 1; Log10 Count Rate [4, 15]: 2.866
16 | KFKQFFNMWQ | 0 | 0 | 0 | 0 | 0 | 0 | 32.75 | – | -2.615 | -3.43 | 2.375 | 237 | 2.375 | 2.375 | -3.43 | – | –
17 | KIKIKIKIYYYY | 0 | – | – | 0 | 0 | 0 | 56.7 | 13.3 | 14.07 | 13.3 | 3.996 | 9918 | 3.996 | 3.996 | – | – | TEM 2cat [1, 14]: 0; beta sheet ([2]; peptides with TEM 2cat 0): 57; Zeta Count Rate ([4]; peptides with TEM 2cat 0): 9918 kcp
18 | KIKIQI | 0 | 0 | 0 | 0 | 0 | 0 | 38.6 | -5.63 | -2.515 | -5.63 | 2.035 | 108 | 2.035 | 2.035 | – | 0 | –
